From patent US20230104283A1, “JNK INHIBITOR, AND PHARMACEUTICAL COMPOSITION AND USE THEREOF” (WUHAN LL SCIENCE AND TECHNOLOGY DEVELOPMENT CO. , LTD, priority 2019, published 2023)

Tests used:
[1] = Stability observed during preparation; format: physicochemical; details: isolated compound; acid, base, water vapor
Procedure: (1R,3R,4R)-5-amino-2-methylcyclohexanol hydrochloride (57 mg, 0.342 mmol) and DIEA (132 mg, 1.026 mmol) were added to a solution of compound T041-3 (100 mg, 0.342 mmol) in isopropanol (3 mL) at room temperature with stirring. After stirring at room temperature for 3 h, the reaction was completed. The reaction mixture was added with water and extracted with ethyl acetate, and the organic phase was washed with saturated brine and dried over anhydrous sodium sulfate. The reaction mixture was concentrated under reduced pressure, purified by preparative high performance liquid chromatography (ammonium bicarbonate method) and lyophilized to give 40 mg of a white solid with a yield of 34%.

[2] = system: RAW264.7 phosphorylated c-Jun (Ser63); assay: RAW264.7 phosphorylated c-Jun whole cell assay; format: cell-based; details: Mus musculus; cytological assay, activity level; lipopolysaccharide-activated RAW264.7 cells, phospho-c-Jun (Ser63) ELISA
Procedure: RAW264.7 (ATCC TIB-71) cells were purchased from BeNa Culture Collection and maintained in a high-glucose DMEM medium (Gibco) containing 10% fetal bovine serum (Gibco) and 1% penicillin-streptomycin (Gibco). All cells were cultured at 37° C. in 95% air and 5% CO2. All cells were seeded into 120 μL of cell culture medium in a 96-well plate at a density of 2×10^5 cells per well. The stock solution of compound (15 mM) was serially diluted in DMSO (Sigma) and further diluted in growth medium, and it was then added at 15 μL per well as a 10× concentrated solution, well mixed with the cells and incubated with the cells for 30 min. Concentration of the compound vehicle (DMSO) in each well was 0.2%. After incubation for 30 min, the cells were activated with […] lipopolysaccharide (Sigma). Lipopolysaccharide was added to the growth medium as a 10× concentrated solution at 15 μL per well. The cell plate was incubated for 1 h, and then all the medium was removed. The level of C-Jun protein with phosphorylation of serine at site 63 was measured using the whole cell lysate kit-phosphorylated C-Jun assay (PathScan® Phospho-c-Jun (Ser63) Sandwich ELISA Kit) (CST, 7145C) according to the manufacturer's instructions.

[3] = molecular target: T1, JNK1 kinase (Homo sapiens, UniProt P45983); assay: JNK1 activity screening (time-resolved fluorometric HTRF kinase assay); format: biochemical; details: enzymatic assay, activity level
T1 construct: purchased Carna Biosciences 04-163
Procedure: JNK1 activity screening. JNK1 activity was detected using a 96-well (Cisbio, 66PL96025) time-resolved fluorometric assay. The JNK1 assay was conducted in the following assay buffer: 10 mM MgCl2 (Sigma, M1028), 1 mM MnCl2 (Sigma, M1787), 1 mM DTT (Sigma, D0632) and 1× Enzymatic buffer/kinase (Cisbio, 62EZBFDC). By using the assay buffer, 3 μL of 0.1 ng/μL JNK1 kinase (Carna Biosciences, 04-163) was added to a 96-well microplate, and then 4 μL of a compound diluted appropriately (with a DMSO content of 2.5%) was added. The resulting mixture was incubated at room temperature for 0.5 h. To start the reaction, the assay buffer was used to mix 0.003 μM ATP (Aladdin, A7699) and 30 μM substrate ATF2-GST fusion (Cisbio, 64CUS000AFPEB), and 3 μL of the mixed solution was added to the microplate. The resulting mixture was incubated at room temperature for 2.5 h. HTRF detection buffer ([…], 62SDBRDD) was used then to prepare a mixture of 5 μg/mL MAb Anti GST-XL665 (Cisbio, 61GSTXLA) and 0.045 μg/mL PAb Anti-phospho ATF2-K (Cisbio, 61P12KAZ), and 10 μL of the mixture was added to the plate to terminate the reaction. After incubation for about 12 h, the plate was read on a Perkin-Elmer Envision reader.

T1 sequence (P45983 whole entry): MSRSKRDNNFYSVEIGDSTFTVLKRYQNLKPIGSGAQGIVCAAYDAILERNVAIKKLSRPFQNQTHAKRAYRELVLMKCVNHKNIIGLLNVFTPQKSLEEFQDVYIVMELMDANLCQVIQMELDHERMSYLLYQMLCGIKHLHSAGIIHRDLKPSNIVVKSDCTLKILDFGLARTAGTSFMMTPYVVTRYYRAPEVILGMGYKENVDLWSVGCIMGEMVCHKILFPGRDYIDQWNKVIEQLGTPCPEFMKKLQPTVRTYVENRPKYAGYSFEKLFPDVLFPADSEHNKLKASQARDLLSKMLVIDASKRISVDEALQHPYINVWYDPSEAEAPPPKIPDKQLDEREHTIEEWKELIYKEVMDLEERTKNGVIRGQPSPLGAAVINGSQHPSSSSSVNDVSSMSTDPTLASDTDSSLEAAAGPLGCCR

Row | Structure (SMILES) | stability of the compound [1] | IC50 [2] | IC50 [3]
1 | C[C@@H]1CC[C@@H](Nc2nc(OC(C)(C)C)ncc2Br)C[C@H]1O [Compound T041, (1R,2R,5R)-5-((5-bromo-2-(tert-butoxy)pyrimidin-4-yl)amino)-2-methylcyclohexan-l-ol] | unstable due to susceptibility to acid, base, water vapor and the like | > 1 µM | 0.5 to 1 µM
2 | C[C@@H]1CC[C@@H](Nc2cc(NC3CCCC3)ncc2C(N)=O)C[C@H]1O [Compound T056, 6-(cyclopentylamino)-4-(((1R,3R,4R)-3-hydroxy-4-methylcyclohexyl)amino) nicotinamide] | – | > 1 µM | 0.5 to 1 µM
3 | C[C@@H]1CC[C@@H](Nc2cc(NC(C)(C)F)ncc2C(N)=O)C[C@H]1O [Compound T057, 6-((2-fluoropropan-2-yl)amino)-4-(((1R, 3R,4R)-3-hydroxy-4-methylcyclohexyl)amino)nicotinamide] | – | > 1 µM | > 1 µM
4 | C[C@@H]1CC[C@@H](Nc2cc(NC3CC3)ncc2C(N)=O)C[C@H]1O [Compound T058, 6-(cyclopropylamino)-4-(((1R,3R,4R)-3-hydroxy-4-methylcyclohexyl)amino) nicotinamide] | – | > 1 µM | > 1 µM
5 | C[C@@H]1CC[C@@H](Nc2cc(NC3CC3O)ncc2C(N)=O)C[C@H]1O (stereo partly drawn) [Compound T059, 4-(((1R,3R,4R)-3-hydroxy-4-methylcyclohexyl)amino)-6-((2-hydroxycyclopropyl)amino)nicotinamide] | – | > 1 µM | > 1 µM
6 | C[C@@H]1CC[C@@H](Nc2cc(NC3C4C[C@H]43)ncc2C(N)=O)C[C@H]1O (stereo partly drawn) [Compound T060, 6-(((1R,2R)-bicyclo[1 1.0]butan-2-yl)amino)-4-(((1R,3R,4R)-3-hydroxy-4-methylcyclohexyl)amino)nicotinamide] | – | > 1 µM | > 1 µM
7 | C[C@@H]1CC[C@@H](Nc2nc(NC(C)(C)C)ncc2[N+](=O)[O-])C[C@H]1O [Compound T062, (1R,2R,5R)-5-((2-(tert-butylamino)-5-nitropyrimidin-4-yl)amino)-2-methylcyclohex-1-ol] | – | > 1 µM | > 1 µM
8 | C[C@@H]1CC[C@@H](Nc2nc(NC(C)(C)C)ncc2N)C[C@H]1O [Compound T063, (1R,2R,5R)-5-((5-amino-2-(tert-butylamino)pyrimidin-4-yl)amino)-2-methylcyclohexan-1-ol] | – | > 1 µM | > 1 µM
9 | C#Cc1cnc(NC(C)(C)C)nc1N[C@@H]1CC[C@@H](C)[C@H](O)C1 [Compound T064, (1R,2R,5R)-5-((2-(ter-butylamino)-5-ethynylpyrimidin-4-yl)amino)-2-methylcyclohex-1-ol] | – | > 1 µM | 0.5 to 1 µM
10 | CC#Cc1cnc(NC(C)(C)C)nc1N[C@@H]1CC[C@@H](C)[C@H](O)C1 [Compound T065, (1R,2R,5R)-5-((2-(tert-butylamino)-5-(prop-1-yn-1-yl)pyrimidin-4-yl)amino)-2-methylcyclohexan-1-ol] | – | > 1 µM | > 1 µM
11 | C=Cc1cnc(NC(C)(C)C)nc1N[C@@H]1CC[C@@H](C)[C@H](O)C1 [Compound T066, (1R,2R,5R)-5-((2-(tert-butylamino)-5-vinylpyrimidin-4-yl)amino)-2-methylcyclohex-1-ol] | – | > 1 µM | > 1 µM
12 | CC(=O)c1cnc(NC(C)(C)C)nc1N[C@@H]1CC[C@@H](C)[C@H](O)C1 [Compound T067, 1-(2-(tert-butylamino)-4-(((1R,3R,4R)-3-hydroxy-4-methylcyclohexyl)amino)pyrimidin-5-yl)ethan-1-one] | – | 0.1 to 0.5 µM | 0.1 to 0.5 µM
13 | C[C@@H]1CC[C@@H](Nc2nc(NC(C)(C)C)ncc2C(=O)C2CC2)C[C@H]1O [Compound T068, (2-(tert-butylamino)-4-(((1R,3R,4R)-3-hydroxy-4-methylcyclohexyl)amino)pyrimidin-5-yl)(cyclopropyl)methanone] | – | 0.1 to 0.5 µM | 0.1 to 0.5 µM
14 | CCC(=O)c1cnc(NC(C)(C)C)nc1N[C@@H]1CC[C@@H](C)[C@H](O)C1 [Compound T069, 1-(2-(tert-butylamino)-4-(((1R,3R,4R)-3-hydroxy-4-methylcyclohexyl)amino)pyrimidin-5-yl)propan-1-one] | – | 0.1 to 0.5 µM | 0.1 to 0.5 µM
15 | CC(C)C(=O)c1cnc(NC(C)(C)C)nc1N[C@@H]1CC[C@@H](C)[C@H](O)C1 [Compound T070, 1-(2-(tert-butylamino)-4-(((1R,3R,4R)-3-hydroxy-4-methylcyclohexyl)amino)pyrimidin-5-yl)-2-methylpropan-1-one] | – | > 1 µM | 0.5 to 1 µM
16 | CC(=O)c1cnc(NC(C)(C)C(F)(F)F)nc1N[C@@H]1CC[C@@H](C)[C@H](O)C1 [Compound T071, 1-(4-(((1R,3R,4R)-3-hydroxy-4-methylcyclohexyl)amino)-2-((1,1,1-trifluoro-2-methylpropan-2-yl)amino)pyrimidin-5-yl)ethan-1-one] | – | > 1 µM | 0.5 to 1 µM
17 | C[C@@H]1CC[C@@H](Nc2nc(Nc3ccc(S(C)(=O)=O)cc3)ncc2C(N)=O)C[C@H]1O [Compound T072, 4-(((1R,3R,4R)-3-hydroxy-4-methylcyclohexyl)amino)-2-((4-(methylsulfonyl)phenyl)amino) pyrimidine-5-carboxamide] | – | < 0.1 µM | < 0.1 µM
18 | C[C@@H]1CC[C@@H](Nc2nc(Nc3ccc(N4CCN(C)CC4)cc3)ncc2C(N)=O)C[C@H]1O [Compound T073, 4-(((1R,3R,4R)-3-hydroxy-4-methylcyclohexyl)amino)-2-((4-(4-methylpiperazin-1-yl)phenyl)amino)pyrimidine-5-carboxamide] | – | 0.1 to 0.5 µM | < 0.1 µM
19 | COc1ccc(CNc2ncc(C(N)=O)c(N[C@@H]3CC[C@@H](C)[C@H](O)C3)n2)cc1 [Compound T074, 4-(((1R,3R,4R)-3-hydroxy-4-methylcyclohexyl)amino)-2-((4-methoxybenzyl)amino)pyrimidine-5-carboxamide] | – | < 0.1 µM | < 0.1 µM
